This assay concerns Rh18 complex spheroid viability, percent test/control. Description: Anticancer human tumor Rh18 cell line growth inhibition [Asc].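 For all read-outs here: spheroids exposed to compound for 7 days.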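 For viability, T/C: 100% = DMSO vehicle control wells.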 The note with it: for viability, T/C: stronger effect = lower value. In outline:
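Concentration series start at each agent's clinical Cmax, or at 10 microM when none is established, and drop in half-log steps; agents are applied alone or together to complex spheroids built with HUVEC and hMSC.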

Setting [1] is: curve of first compound, second compound 0.03 µM.
Setting [2] is: curve of first compound, second compound 0.0949 µM.
Where [3] appears, read: curve of first compound, second compound 0.3 µM.
[4] abbreviates: curve of first compound, second compound 0.949 µM.
Setting [5] is: curve of first compound, second compound 3 µM.
The mark [6] stands for this setting: second compound 0.03 µM, first compound 0.0316 µM.
Setting [7] is: second compound 0.03 µM, first compound 0.1 µM.
[8] abbreviates: second compound 0.03 µM, first compound 0.316 µM.
Where [9] appears, read: second compound 0.03 µM, first compound 1 µM.
Where [10] appears, read: second compound 0.03 µM, first compound 3.16 µM.
[11] abbreviates: second compound 0.03 µM, first compound 10 µM.
The mark [12] stands for this setting: second compound 0.0949 µM, first compound 0.0316 µM.
Where [13] appears, read: second compound 0.0949 µM, first compound 0.1 µM.
[14] abbreviates: second compound 0.0949 µM, first compound 0.316 µM.
Setting [15] is: second compound 0.0949 µM, first compound 1 µM.
[16] abbreviates: second compound 0.0949 µM, first compound 3.16 µM.
Setting [17] is: second compound 0.0949 µM, first compound 10 µM.
Setting [18] is: second compound 0.3 µM, first compound 0.0316 µM.
[19] abbreviates: second compound 0.3 µM, first compound 0.1 µM.
Setting [20] is: second compound 0.3 µM, first compound 0.316 µM.
The mark [21] stands for this setting: second compound 0.3 µM, first compound 1 µM.
Where [22] appears, read: second compound 0.3 µM, first compound 3.16 µM.
Where [23] appears, read: second compound 0.3 µM, first compound 10 µM.
Setting [24] is: second compound 0.949 µM, first compound 0.0316 µM.
Setting [25] is: second compound 0.949 µM, first compound 0.1 µM.
Setting [26] is: second compound 0.949 µM, first compound 0.316 µM.
Setting [27] is: second compound 0.949 µM, first compound 1 µM.
Setting [28] is: second compound 0.949 µM, first compound 3.16 µM.
The mark [29] stands for this setting: second compound 0.949 µM, first compound 10 µM.
Where [30] appears, read: second compound 3 µM, first compound 0.0316 µM.
Where [31] appears, read: second compound 3 µM, first compound 0.1 µM.
Where [32] appears, read: second compound 3 µM, first compound 0.316 µM.
Setting [33] is: second compound 3 µM, first compound 1 µM.
Setting [34] is: second compound 3 µM, first compound 3.16 µM.
[35] abbreviates: second compound 3 µM, first compound 10 µM.

For orientation: viability, T/C means the ratio of treated to control. What is called IC50 is the concentration that gives 50% inhibition.

Where “and” joins values, the source holds several entries; their conditions need not be identical. Equal values may be shown once.

Take `Cc1c(S(C)(=O)=O)c(-c2cc(F)cc(N3CCN(c4ccc(NS(=O)(=O)c5ccc(NC(CCN6CCC(C(=O)OCCCP(=O)(O)O)CC6)CSc6ccccc6)c(S(=O)(=O)C(F)(F)F)c5)cc4)CC3)c2)c(-c2ccc(Cl)cc2)n1C(C)C` (stereo not drawn): the viability, T/C runs as follows: (compound 0.1 µM) 14.1% [middle of 14 runs]; (compound 0.316 µM) 10% [middle of 14 runs]; (compound 1 µM) 9.12% [middle of 13 runs]; (compound 3.16 µM) 6.19% [middle of 14 runs]; (compound 10 µM) 5.39% [middle of 14 runs]. For the same compound, the IC50 (compound alone, run of 10/11/2022) is below 100 nM.

`COc1c(OCCCN2CCOCC2)ccc2c3n(c(=NC(=O)c4cnc(N)nc4)nc12)CCN3`: the viability, T/C was 64.9% and 91.3% and 71.5% (compound 0.00316 µM); 50.6% and 55% and 53.8% (compound 0.01 µM); 15.9% and 20.9% and 23.7% (compound 0.0316 µM); 6.98% and 6.83% and 7.49% (compound 0.1 µM); 3.1% and 3.42% and 2.99% (compound 0.316 µM); 1.11% and 1.4% and 0.6% (compound 1 µM). Also, the IC50 (curve of compound) was 10.1 nM and 11.8 nM and 11.5 nM.

In the case of `C=C(F)C(=O)N1CCN(c2nc(OCC3CCCN3C)nc3c2CCN(c2cccc4cccc(Cl)c24)C3)CC1CC#N` (stereo not drawn) + Cc1c(S(C)(=O)=O)c(-c2cc(F)cc(N3CCN(c4ccc(NS(=O)(=O)c5ccc(NC(CCN6CCC(C(=O)OCCCP(=O)(O)O)CC6)CSc6ccccc6)c(S(=O)(=O)C(F)(F)F)c5)cc4)CC3)c2)c(-c2ccc(Cl)cc2)n1C(C)C, the IC50 by setting is: (curve of first compound, second compound 0.1 µM) below 31.6 nM; (curve of first compound, second compound 0.316 µM) below 31.6 nM; (curve of first compound, second compound 1 µM) below 31.6 nM; (curve of first compound, second compound 3.16 µM) below 31.6 nM; (curve of first compound, second compound 10 µM) below 31.6 nM. Further, the viability, T/C was 13.9% (second compound 0.1 µM, first compound 0.0316 µM); 14.1% (second compound 0.1 µM, first compound 0.1 µM); 16.8% (second compound 0.1 µM, first compound 0.316 µM); 18.4% (second compound 0.1 µM, first compound 1 µM); 4.57% (second compound 0.1 µM, first compound 3.16 µM); 0.19% (second compound 0.1 µM, first compound 10 µM). The viability, T/C by setting is: (second compound 0.316 µM, first compound 0.0316 µM) 6.98%; (second compound 0.316 µM, first compound 0.1 µM) 8.95%; (second compound 0.316 µM, first compound 0.316 µM) 10.2%; (second compound 0.316 µM, first compound 1 µM) 10.4%; (second compound 0.316 µM, first compound 3.16 µM) 1.87%; (second compound 0.316 µM, first compound 10 µM) 0.13%. Besides, the viability, T/C was 7.24% (second compound 1 µM, first compound 0.0316 µM); 8.76% (second compound 1 µM, first compound 0.1 µM); 10.9% (second compound 1 µM, first compound 0.316 µM); 8.02% (second compound 1 µM, first compound 1 µM); 0.6% (second compound 1 µM, first compound 3.16 µM); 0.14% (second compound 1 µM, first compound 10 µM). The viability, T/C is 7.34% (second compound 3.16 µM, first compound 0.0316 µM); 7.03% (second compound 3.16 µM, first compound 0.1 µM); 8.15% (second compound 3.16 µM, first compound 0.316 µM); 4.6% (second compound 3.16 µM, first compound 1 µM); 0.19% (second compound 3.16 µM, first compound 3.16 µM); 0.18% (second compound 3.16 µM, first compound 10 µM). Further, the viability, T/C by setting is: (second compound 10 µM, first compound 0.0316 µM) 4.96%; (second compound 10 µM, first compound 0.1 µM) 5.5%; (second compound 10 µM, first compound 0.316 µM) 5.96%; (second compound 10 µM, first compound 1 µM) 4.82%; (second compound 10 µM, first compound 3.16 µM) 0.38%; (second compound 10 µM, first compound 10 µM) 0.23%.

As for `C#Cc1c(F)ccc2cc(O)cc(-c3ncc4c(N5CC6CCC(C5)N6)nc(OCC56CCCN5CC(F)C6)nc4c3F)c12` (stereo not drawn) + CCN1C(C(=O)NC23CCC(C(=O)O)(CC2)CC3)C(c2cccc(Cl)c2F)C2(C(=O)Nc3cc(Cl)ccc32)C12CCCCC2, the IC50 under setting [1] was below 31.6 nM; the IC50 under setting [2] is below 31.6 nM; the IC50 under setting [3] was below 31.6 nM; the IC50 under setting [4] was below 31.6 nM; the IC50 under setting [5] is below 31.6 nM. The viability, T/C is 42.7% under setting [6]; 45.1% under setting [7]; 43.9% under setting [8]; 40.4% under setting [9]; 41.8% under setting [10]; 46.6% under setting [11]. For the same compound, the viability, T/C is, setting by setting: under setting [12], 25.1%; under setting [13], 24.1%; under setting [14], 22.1%; under setting [15], 28.2%; under setting [16], 23.6%; under setting [17], 25.3%. Further, the viability, T/C is, setting by setting: under setting [18], 13.1%; under setting [19], 13.9%; under setting [20], 14.4%; under setting [21], 12.6%; under setting [22], 15.6%; under setting [23], 13.7%. Further, the viability, T/C by setting is: under setting [24], 11.7%; under setting [25], 12.7%; under setting [26], 11%; under setting [27], 12.4%; under setting [28], 12.3%; under setting [29], 10.5%. Moreover, the viability, T/C under setting [30] was 8.99%; the viability, T/C under setting [31] was 12.6%; the viability, T/C under setting [32] was 12.4%; the viability, T/C under setting [33] was 11.5%; the viability, T/C under setting [34] was 8.93%; the viability, T/C under setting [35] is 11.6%.

With `C=C(F)C(=O)N1CCN(c2nc(OCC3CCCN3C)nc3c2CCN(c2cccc4cccc(Cl)c24)C3)CC1CC#N` (stereo not drawn) + CCN1C(C(=O)NC23CCC(C(=O)O)(CC2)CC3)C(c2cccc(Cl)c2F)C2(C(=O)Nc3cc(Cl)ccc32)C12CCCCC2, the concentration for half-maximal inhibition (IC50) reads like this: under setting [1], below 31.6 nM; under setting [2], below 31.6 nM; under setting [3], below 31.6 nM; under setting [4], below 31.6 nM; under setting [5], below 31.6 nM. The viability, T/C under setting [6] is 25.2%; the viability, T/C under setting [7] is 28.7%; the viability, T/C under setting [8] is 35.2%; the viability, T/C under setting [9] is 32.9%; the viability, T/C under setting [10] is 31.6%; the viability, T/C under setting [11] was 0.2%. Besides, the viability, T/C runs as follows: under setting [12], 19.6%; under setting [13], 20.5%; under setting [14], 17.7%; under setting [15], 18.5%; under setting [16], 7.46%; under setting [17], 0.15%. In addition, the viability, T/C reads like this: under setting [18], 10.7%; under setting [19], 10.4%; under setting [20], 9.23%; under setting [21], 7.64%; under setting [22], 3.23%; under setting [23], 0.14%. In addition, the viability, T/C by setting is: under setting [24], 8.48%; under setting [25], 8.88%; under setting [26], 8.35%; under setting [27], 6.27%; under setting [28], 2.4%; under setting [29], 0.14%. Moreover, the viability, T/C runs as follows: under setting [30], 7.28%; under setting [31], 7.78%; under setting [32], 8.39%; under setting [33], 5.04%; under setting [34], 2.37%; under setting [35], 0.17%.

(Values after PubChem BioAssay AID1963431 (Molecular Pharmacology Branch, DTP, NCI, 2024).)
